Test results reported in US8987312B2, “Alpha-keto heterocycles as FAAH inhibitors” (The Scripps Research Institute, priority 2008, dated 2015).
Read-outs that look alike come from different tables or passages of the source.

Key:
Assay type in all cases: biochemical
[1] = target: T1, recombinant human fatty acid amide hydrolase (Homo sapiens, UniProt O00519); assay: FAAH inhibition enzyme assay, human enzyme (COS-7 lysate); conditions: Table 3
T1 construct: The full-length human FAAH (hFAAH) was expressed in COS-7 cells as described; expressed in transfected cells; host or cells: COS-7
T1 sequence (O00519 1-579): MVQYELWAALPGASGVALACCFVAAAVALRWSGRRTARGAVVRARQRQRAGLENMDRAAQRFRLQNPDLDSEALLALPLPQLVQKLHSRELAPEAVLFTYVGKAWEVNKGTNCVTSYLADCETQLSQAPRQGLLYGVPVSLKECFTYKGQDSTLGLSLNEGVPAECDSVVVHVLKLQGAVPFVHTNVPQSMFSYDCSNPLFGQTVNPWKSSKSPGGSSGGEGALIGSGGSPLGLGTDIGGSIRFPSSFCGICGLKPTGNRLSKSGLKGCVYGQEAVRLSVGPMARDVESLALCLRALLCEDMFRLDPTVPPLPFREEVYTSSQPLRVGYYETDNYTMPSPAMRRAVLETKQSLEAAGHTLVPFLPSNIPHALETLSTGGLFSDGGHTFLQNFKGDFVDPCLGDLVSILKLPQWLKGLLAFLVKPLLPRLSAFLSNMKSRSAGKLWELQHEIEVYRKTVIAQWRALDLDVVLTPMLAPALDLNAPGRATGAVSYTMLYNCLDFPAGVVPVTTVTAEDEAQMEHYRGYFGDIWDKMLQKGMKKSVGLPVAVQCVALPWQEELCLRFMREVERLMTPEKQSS
Excerpt: (§1) The purified recombinant rFAAH was used in the inhibition assays unless otherwise indicated.
(§2) The ^14C-labeled oleamide (substrate) and oleic acid (product) were extracted with EtOAc and analyzed by TLC.

[2] = target: T2, KIAA1363 (Mus musculus, UniProt Q8BLF1); assay: Activity based protein profiling (proteome-wide selectivity screening, FP-Rh), KIAA1363; conditions: Table 4; for IC50: activity based protein profiling; for KIAA1363 selectivity (value in parentheses): ratio KIAA1363 IC50 / FAAH IC50 (fold selectivity for FAAH)
T2 construct: with FP-Rh in brain and heart membrane proteome; from tissue; host or cells: brain and heart membrane proteome
T2 sequence (Q8BLF1 1-408): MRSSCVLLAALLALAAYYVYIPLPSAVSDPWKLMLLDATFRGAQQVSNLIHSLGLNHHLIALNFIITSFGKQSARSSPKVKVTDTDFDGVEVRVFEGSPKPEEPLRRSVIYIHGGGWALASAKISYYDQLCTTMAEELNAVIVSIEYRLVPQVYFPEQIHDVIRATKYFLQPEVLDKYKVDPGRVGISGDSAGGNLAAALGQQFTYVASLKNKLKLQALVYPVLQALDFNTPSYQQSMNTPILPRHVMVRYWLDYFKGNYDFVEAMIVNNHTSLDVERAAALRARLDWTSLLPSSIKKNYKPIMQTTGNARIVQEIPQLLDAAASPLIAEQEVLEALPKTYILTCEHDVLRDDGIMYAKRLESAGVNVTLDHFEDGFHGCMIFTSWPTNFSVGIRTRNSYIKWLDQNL
Excerpt: (§3) Enzyme targets such as FAAH, KIAA1363, and TGH are labeled at the left margin.

[3] = target: T3, purified recombinant rat FAAH (Rattus norvegicus, UniProt P97612); assay: FAAH inhibition enzyme assay (14C-oleamide hydrolysis, Dixon plot), rat enzyme
T3 construct: The truncated rat FAAH (rFAAH) was expressed in E. coli and purified as described; made in house; host or cells: Escherichia coli
T3 sequence (P97612 30-579 limits assumed): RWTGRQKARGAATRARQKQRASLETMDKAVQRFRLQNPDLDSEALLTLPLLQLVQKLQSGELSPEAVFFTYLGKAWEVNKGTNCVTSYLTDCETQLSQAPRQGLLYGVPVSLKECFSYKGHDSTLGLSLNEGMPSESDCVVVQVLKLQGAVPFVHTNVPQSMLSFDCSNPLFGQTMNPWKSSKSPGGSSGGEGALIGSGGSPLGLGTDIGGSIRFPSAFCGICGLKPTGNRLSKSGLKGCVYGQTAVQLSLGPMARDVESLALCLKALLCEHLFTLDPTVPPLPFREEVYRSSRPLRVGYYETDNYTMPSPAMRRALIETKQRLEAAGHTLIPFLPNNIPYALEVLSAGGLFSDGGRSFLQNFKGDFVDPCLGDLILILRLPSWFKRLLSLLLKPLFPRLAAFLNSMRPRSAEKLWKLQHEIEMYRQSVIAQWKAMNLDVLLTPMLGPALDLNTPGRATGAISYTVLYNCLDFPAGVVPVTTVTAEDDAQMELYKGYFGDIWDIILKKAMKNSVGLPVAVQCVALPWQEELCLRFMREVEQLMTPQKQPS
Excerpt: as §1, §2

[4] = target: T4, triacylglycerol hydrolase (TGH) (Mus musculus, UniProt Q8VCT4); assay: Activity based protein profiling (proteome-wide selectivity screening, FP-Rh), TGH; conditions: Table 4; for TGH selectivity (value in parentheses): ratio TGH IC50 / FAAH IC50 (fold selectivity for FAAH); for IC50: activity based protein profiling
T4 construct: with FP-Rh in brain and heart membrane proteome; from tissue; host or cells: brain and heart membrane proteome
T4 sequence (Q8VCT4 19-565): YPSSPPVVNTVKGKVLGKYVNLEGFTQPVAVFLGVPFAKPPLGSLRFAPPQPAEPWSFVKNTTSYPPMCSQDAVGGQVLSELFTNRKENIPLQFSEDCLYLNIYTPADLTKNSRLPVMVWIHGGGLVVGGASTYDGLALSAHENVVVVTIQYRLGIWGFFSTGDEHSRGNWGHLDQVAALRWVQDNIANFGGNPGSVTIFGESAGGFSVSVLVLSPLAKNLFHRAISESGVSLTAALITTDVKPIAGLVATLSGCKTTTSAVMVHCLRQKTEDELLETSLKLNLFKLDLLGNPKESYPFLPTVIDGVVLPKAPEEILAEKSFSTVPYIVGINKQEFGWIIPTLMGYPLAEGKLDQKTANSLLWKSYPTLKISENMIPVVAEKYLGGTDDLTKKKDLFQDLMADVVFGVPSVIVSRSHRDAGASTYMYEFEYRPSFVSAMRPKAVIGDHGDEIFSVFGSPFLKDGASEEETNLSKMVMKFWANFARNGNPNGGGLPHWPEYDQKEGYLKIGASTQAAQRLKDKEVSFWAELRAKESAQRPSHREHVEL
Excerpt: as §3

[5] = target: T5, FAAH (Mus musculus, UniProt O08914); assay: Activity based protein profiling (proteome-wide selectivity screening, FP-Rh), FAAH; conditions: Table 4
T5 construct: with FP-Rh in brain and heart membrane proteome; from tissue; host or cells: brain and heart membrane proteome
T5 sequence (O08914 1-579): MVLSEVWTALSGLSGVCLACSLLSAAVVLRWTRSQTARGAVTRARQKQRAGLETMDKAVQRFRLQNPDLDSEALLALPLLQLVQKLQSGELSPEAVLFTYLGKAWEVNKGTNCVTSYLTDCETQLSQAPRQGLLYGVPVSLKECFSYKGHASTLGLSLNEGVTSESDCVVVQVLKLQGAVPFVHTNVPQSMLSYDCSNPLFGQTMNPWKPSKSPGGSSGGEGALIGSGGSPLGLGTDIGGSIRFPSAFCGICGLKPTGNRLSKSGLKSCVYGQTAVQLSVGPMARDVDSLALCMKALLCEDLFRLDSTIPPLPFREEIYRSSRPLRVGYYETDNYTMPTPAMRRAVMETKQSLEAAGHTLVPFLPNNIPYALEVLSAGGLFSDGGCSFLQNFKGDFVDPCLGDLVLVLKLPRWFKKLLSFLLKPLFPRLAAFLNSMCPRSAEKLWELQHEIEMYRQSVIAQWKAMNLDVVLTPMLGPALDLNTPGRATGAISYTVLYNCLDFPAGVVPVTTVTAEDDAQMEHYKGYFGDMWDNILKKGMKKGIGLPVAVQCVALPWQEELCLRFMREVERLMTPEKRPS
Excerpt: as §3

[6] = Table 2, rat FAAH, pH 9 assay conditions, read-out: Ki
[7] = Table 3, rat FAAH, read-out: Ki, μM (rat)

Structure (SMILES)	Ki [1] [µM]	IC50 [2] [nM]	KIAA1363 selectivity (value in parentheses) [2]	Ki [3, 6] [µM]	Ki [3, 7] [µM]	Ki ([3]; Table 4, read-out: FAAH Ki) [µM]	TGH selectivity (value in parentheses) [4]	IC50 [5] [nM]	IC50 [4] [nM]	Ki ([3]; rat FAAH, pH 9, read-out: Ki) [µM]
O=C(CCCCCCc1ccccc1)c1nnc(-c2ccccn2)o1 [8b, 7-Phenyl-1-(5-(pyridin-2-yl)-1,3,4-oxadiazol-2-yl)-heptan-1-one]	0.0012	90000	90000	0.00029	0.00029	0.00029	140	–	–	–
O=C(CCCCCCc1ccccc1)c1nc(-c2ccccn2)no1 [9b, 7-Phenyl-1-(3-(pyridin-2-yl)-1,2,4-oxadiazol-5-yl)-heptan-1-one]	0.00092	30000	10000	0.00034	0.00034	0.00034	10	3	30	–
O=C(CCCCCCc1ccccc1)c1nnn(-c2ccccn2)n1 [15b, 7-Phenyl-1-(2-(pyridin-2-yl)-2H-tetrazol-5-yl)-heptan-1-one]	0.0055	> 100000	–	–	–	–	–	–	120	–
O=C(CCCCCCc1ccccc1)c1nnc(-c2ccccn2)s1 [12b, 7-Phenyl-1-(5-(pyridin-2-yl)-1,3,4-thiadiazol-2-yl)-heptan-1-one]	0.003	> 100000	> 3300	0.0008	0.0008	0.0008	150	30	4500	–
O=C(CCCCCCc1ccccc1)c1noc(-c2ccccn2)n1 [10b, 7-Phenyl-1-(5-(pyridin-2-yl)-1,2,4-oxadiazol-3-yl)-heptan-1-one]	0.016	> 100000	> 14000	0.0011	0.0011	0.0011	60	7	400	–
O=C(CCCCCCc1ccccc1)c1nnco1 [8a, 1-(1,3,4-Oxadiazol-2-yl)-7-phenylheptan-1-one]	–	> 100000	> 6250	0.001	–	0.001	1.5	16	25	–
COC(=O)c1cccc(-c2ccc(C(=O)CCCCCCc3ccccc3)nn2)n1 [13f, Methyl 6-(6-(7-Phenylheptanoyl)-pyridazin-3-yl)-picolinate]	–	> 100000	> 10	0.11	–	0.11	> 10	10000	> 100000	–
O=C(O)c1cccc(-c2nnc(C(=O)CCCCCCc3ccccc3)o2)n1 [8g]	0.037	> 100000	–	–	–	–	–	–	40000	–
O=C(CCCCCCc1ccccc1)c1ncc(-c2ccco2)o1 [7c]	–	> 100000	> 1250	0.012	–	0.012	4	80	300	–
COC(=O)c1nc(C(=O)CCCCCCc2ccccc2)no1 [10h, Methyl 3-(7-Phenylheptanoyl)-1,2,4-oxadiazole-5-carboxylate]	–	> 100000	> 10000	–	–	0.007	20	10	200	< 0.01
COC(=O)c1cccc(-c2nnc(C(=O)CCCCCCc3ccccc3)o2)n1 [8f, Methyl 6-(5-(7-Phenylheptanoyl)-1,3,4-oxadiazol-2-yl)-picolinate]	–	> 100000	> 12500	0.003	–	0.003	5	8	40	–
